Measured values published in the NIST ThermoML archive (doi:10.1016/j.fluid.2009.02.007).

Assay: osmotic coefficient (dimensionless); mn = molality of the nth substance listed, in mol/kg
Conditions: 101 kPa, Liquid, Vapor pressure osmometry

CCCCn1cc[n+](C)c1.F[B-](F)(F)F [1-butyl-3-methylimidazolium tetrafluoroborate] + O
osmotic coefficient
Conditions	298.15 K	308.15 K	318.15 K	328.15 K
m1 = 0.012	1.023	1.009	1.006	0.994
m1 = 0.0223	0.994	0.974	0.986	0.978
m1 = 0.0369	0.987	0.959	0.955	0.965
m1 = 0.045	0.956	0.956	0.96	0.959
m1 = 0.0652	0.952	0.926	0.937	0.92
m1 = 0.0855	0.862	0.879	0.892	0.9
m1 = 0.1058	0.854	0.872	0.887	0.883
m1 = 0.1629	0.825	0.823	0.826	0.839
m1 = 0.2108	0.804	0.787	0.802	0.797
m1 = 0.2695	0.749	0.766	0.766	0.772
m1 = 0.3284	0.699	0.708	0.748	0.761
m1 = 0.4307	0.677	0.685	0.693	0.726
m1 = 0.533	0.648	0.666	0.673	0.685
m1 = 0.6375	0.619	0.622	0.634	0.647
m1 = 0.7233	0.575	0.587	0.61	0.632
m1 = 0.9322	0.523	0.545	0.564	0.589
m1 = 1.292	0.462	0.495	0.508	0.517
m1 = 2.066	0.392	0.396	0.412	0.415

CCCCn1cc[n+](C)c1.COS(=O)(=O)[O-] [1-butyl-3-methylimidazolium methyl sulfate] + O
osmotic coefficient
Conditions	298.15 K	308.15 K	318.15 K	328.15 K
m1 = 0.0132	0.923	0.937	0.968	0.987
m1 = 0.0225	0.895	0.921	0.958	0.977
m1 = 0.0328	0.884	0.897	0.94	0.966
m1 = 0.0434	0.863	0.885	0.896	0.959
m1 = 0.0634	0.837	0.872	0.882	0.896
m1 = 0.078	0.821	0.836	0.877	0.887
m1 = 0.1205	0.809	0.813	0.839	0.874
m1 = 0.157	0.791	0.809	0.839	0.858
m1 = 0.1944	0.78	0.802	0.814	0.857
m1 = 0.2801	0.767	0.779	0.802	0.84
m1 = 0.3552	0.741	0.758	0.775	0.81
m1 = 0.4687	0.721	0.749	0.762	0.8
m1 = 0.7057	0.71	0.74	0.756	0.786
m1 = 0.9552	0.698	0.716	0.732	0.76
m1 = 1.44	0.692	0.708	0.73	0.752
m1 = 2.177	0.693	0.7	0.726	0.743

CCOS(=O)(=O)[O-].CCn1cc[n+](C)c1 [1-ethyl-3-methylimidazolium ethyl sulfate] + O
osmotic coefficient
Conditions	298.15 K	308.15 K	318.15 K	328.15 K
m1 = 0.0086	0.973	0.981	1.019	1.018
m1 = 0.0185	0.957	0.943	0.972	0.975
m1 = 0.0284	0.937	0.921	0.934	0.955
m1 = 0.0376	0.921	0.917	0.93	0.936
m1 = 0.057	0.871	0.862	0.868	0.886
m1 = 0.0749	0.852	0.862	0.859	0.858
m1 = 0.0938	0.83	0.838	0.845	0.85
m1 = 0.1269	0.815	0.817	0.831	0.842
m1 = 0.1704	0.782	0.797	0.813	0.815
m1 = 0.2087	0.774	0.779	0.797	0.815
m1 = 0.2648	0.754	0.764	0.797	0.8
m1 = 0.3276	0.751	0.766	0.793	0.796
m1 = 0.4235	0.736	0.755	0.776	0.787
m1 = 0.5106	0.724	0.745	0.772	0.781
m1 = 0.6979	0.712	0.727	0.742	0.755
m1 = 0.8919	0.706	0.721	0.73	0.747
m1 = 1.12	0.697	0.711	0.717	0.729
m1 = 1.606	0.696	0.707	0.715	0.719
m1 = 1.889	0.694	0.707	0.717	0.726
m1 = 2.763	0.733	0.747	0.759	0.766
